PubChem BioAssay (NCI)
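Test compounds were applied to cells in 96-well plates for 48 hours at 5 doses. GI50 = concentration required for 50% inhibition of growth. TGI marks complete inhibition of growth.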

Columns and labels:
Experiment in all cases: DTP human tumour cell line panel, 48 h
[1] = test system: MALME-3M melanoma
[2] = test system: MDA-MB-231 breast
[3] = test system: HOP-62 NSCLC
[4] = test system: SR leukemia
[5] = test system: TK-10 renal
[6] = test system: PC-3 prostate
[7] = test system: LOX IMVI melanoma
[8] = test system: SF-295 CNS
[9] = test system: SNB-19 CNS
[10] = test system: RPMI-8226 leukemia

Compound	GI50 [1] [µM]	TGI [1] [µM]	GI50 [2] [µM]	TGI [2] [µM]	GI50 [3] [µM]	TGI [3] [µM]	GI50 [4] [µM]	TGI [4] [µM]	GI50 [5] [µM]	TGI [5] [µM]	GI50 [6] [µM]	TGI [6] [µM]	GI50 [7] [µM]	TGI [7] [µM]	GI50 [8] [µM]	TGI [8] [µM]	GI50 [9] [µM]	TGI [9] [µM]	GI50 [10] [µM]	TGI [10] [µM]
Cc1c(C#N)cccc1[C@@H](C)Nc1nnc(C)c2cnc(N3CCOCC3)cc12	21.4	58.5	26.9	> 100	43.4	> 100	10.7	92.1	14.2	> 100	27.8	> 100	27.5	> 100	21.9	> 100	25.3	> 100	25.8	> 100
COc1cc(OC)cc(C2C3=C(COC3=O)Nc3cc(OC)ccc32)c1 (configuration not stated)	13.5	> 100	< 0.0128	–	< 0.01	21.7	< 0.01	–	22.2	> 92.5	< 0.01	> 42.3	< 0.01	> 44.1	< 0.01	28.2	0.0178	> 100	< 0.01	> 43.9
CCCc1cc(=O)n2c(C(=O)Nc3ccc(F)cc3)c(C(=O)Nc3ccc(F)cc3)sc2n1	36	91.3	4.8	23.8	2.29	33.2	31.3	88.1	32.3	74.7	30.1	> 160	45.5	> 160	> 160	> 160	117	> 160	23.9	93.6
CC(C)OC(=S)Nc1ccc(Cl)c(/C=N/OC(C)(C)C)c1	–	34.2	–	31.5	–	41.4	–	39.3	–	17.1	–	38.1	–	34.3	–	18.6	–	44.2	–	51.3
CC/C(Cc1ccccc1)=C(\c1ccc(OCCN2CCCC2)cc1)c1ccc(OC(=O)NCc2ccccc2)cc1	1.68	3.19	1.84	3.35	2.07	3.75	1.57	4.07	1.76	3.5	1.86	3.55	1.71	3.1	1.7	3.14	2.15	4.58	2.25	4.95
C=C1C(O)C2CC(C)(CO)C(=O)C2=C(CC(C)C)C12CC2 (configuration not stated)	28.3	> 100	> 100	> 100	> 100	> 100	40.8	> 100	52.9	> 100	56	> 100	57.9	> 100	57.1	> 100	> 100	> 100	29.1	> 100
O=C(NCC(F)(F)F)Nc1cccc(-c2cnc3cc(-c4ccc(F)cc4)ccn23)c1	0.541	46.2	2.65	> 49.4	1.51	> 86.3	0.314	11.1	1.02	17.7	2.22	> 100	0.727	11.2	0.737	6.97	2.26	> 100	1.29	17.9
CS(=O)(=O)c1ccc(Nc2nc(N[C@H]3CCCC[C@H]3N)nc3cc[nH]c(=O)c23)cc1	1.73	4.64	2.81	16.3	3.02	> 100	0.68	6.03	3.19	18.7	2.46	> 100	0.857	6.7	1.91	5.84	0.714	28.3	4	32.8
N#CC1=C(N)Oc2c(ccc3ccccc23)C1c1cc(=O)oc2ccc(Cl)cc12 (configuration not stated)	18.1	67.8	4.36	> 100	0.672	> 100	0.449	> 100	16.9	73.1	0.495	> 100	0.854	40.5	0.398	20.1	0.651	> 100	1.68	20
O=[N+]([O-])c1ccc(Cl)c(CNc2ncnc3c2ncn3C2CCCCO2)c1 (configuration not stated)	–	> 100	–	> 100	–	> 100	–	64.4	–	> 100	–	> 100	–	> 100	–	> 100	–	> 100	–	> 100
Cc1ccc(-c2nc(/C=N/Nc3cc(C)nc4ccc(Cl)cc34)c(C)o2)cc1	1.94	3.67	1.81	3.48	1.88	3.58	0.339	1.39	1.8	3.32	2.26	5.65	–	–	1.8	3.31	1.84	3.49	1.69	4.2
CNCCCNc1nc2ccccc2c2c(=O)c3cc(OC)ccc3sc12	1.67	3.15	1.52	2.98	1.76	3.76	3.55	> 100	1.73	3.39	1.74	3.45	1.57	2.93	1.82	3.34	1.68	3.18	2.22	5.16
CCCCCCSSC(=S)N(CC)CC	23	60.4	17.5	39.2	34.6	> 100	0.0589	29.1	25.8	56.7	20.5	57.6	15.3	33.1	17.4	51.1	40.3	> 100	18.8	> 100
NC(=O)c1ccc(Oc2nccc(-c3c(-c4ccc(F)cc4)ncn3C3CCNCC3)n2)cc1	> 25	> 25	> 25	> 25	> 25	> 25	> 25	> 25	> 25	> 25	> 25	> 25	> 25	> 25	> 25	> 25	> 25	> 25	> 25	> 25
COc1cc(C2C3=C(COC3=O)N(CCO)c3cc4c(cc32)OCCO4)cc(OC)c1OC (configuration not stated)	> 50	> 50	0.185	2.72	0.465	> 50	0.166	–	–	–	0.185	> 50	0.286	> 50	0.15	4.66	0.717	> 50	0.149	–
CSc1nc2nc3c(nc2c(=O)n1C)C(=O)c1ccccc1C3=O	0.0406	0.166	0.256	0.974	0.097	0.413	0.332	> 100	0.766	2.1	0.269	1.46	0.128	0.315	0.157	0.315	0.304	1.28	0.255	1.02
O=C(NCCCc1cn[nH]c1)c1ccc(-c2ccncc2)c(C#Cc2ccc(F)cc2)c1	10.2	54.2	16.4	> 100	5.49	> 64.9	2.53	> 100	12.8	> 100	< 0.01	76.8	0.913	53.6	–	47.9	0.229	> 100	< 0.0113	9.54
Nc1nc2c(C(=O)NCc3cccs3)nnn2c2cccc(Cl)c12	–	> 100	–	> 100	–	> 100	–	> 100	–	> 100	–	> 100	–	> 100	–	> 100	–	> 100	–	> 100
O=C(NC(=O)c1c(Cl)nc2sccn12)Nc1ccc(Cl)cc1	–	> 100	–	68.5	–	43.3	–	> 100	–	89.2	–	> 56.2	–	> 100	–	70.2	–	74.1	–	> 100
COc1ccc(C(=O)c2cc(C)c(OC)c(C)c2)c(OC)c1NC(C)=O	1.17	> 100	0.363	> 100	0.239	> 100	0.307	> 100	> 100	> 100	0.0776	> 100	0.526	> 100	0.046	> 100	0.265	> 100	0.785	> 100
O=C1CSC(c2ccccc2Cl)N1c1nnc(Cn2cnnc2)o1 (configuration not stated)	6.84	30.6	12.1	29.9	17.6	44.6	3.51	19.1	22.8	81.9	11.6	> 100	7.43	21	3.38	19.5	–	–	5.77	95.5
CN=C1C=CC(=C(c2ccc(N(C)C)cc2)c2ccc(N(C)C)cc2)C=C1	0.406	1.95	0.267	0.785	0.0765	1.48	0.206	0.551	0.218	1.14	0.286	1.09	0.201	1.04	0.147	0.473	0.324	1.94	0.0543	0.255
C#C[C@@]1(O)[C@@H](CO)O[C@@H](n2cc(I)c3c(N)ncnc32)[C@@H]1O	0.826	3.39	0.185	> 100	0.747	8.69	0.262	> 28.5	0.551	5.51	0.0756	> 38.1	0.0812	1.22	0.432	3.77	0.0996	> 50	0.343	5.51
CN(C)CC1CC/C(=C\c2ccc3c(c2)OCO3)C1=O (configuration not stated)	–	18.3	–	4.25	–	> 70.1	–	11	–	25.1	–	27.1	–	3.72	–	56.8	–	36	–	–
C#CC1=CC(=O)C(OC)=CC1=O	–	55.2	–	34.8	–	36.6	–	36.4	–	> 100	–	> 100	–	40	–	> 100	–	> 100	–	49.6
CN(C)CCCn1c(=O)c2ccccc2c2cnc3[nH]ccc3c21	1.69	4.55	1.99	8.83	1.49	5.72	0.63	13.6	–	–	1.69	11.1	0.631	3.27	1.18	6.65	2.19	10.6	2.23	7.3
O=C(Nc1ccccc1I(=O)=O)C1CCCCC1	> 100	> 100	> 100	> 100	–	–	> 100	> 100	> 100	> 100	> 100	> 100	> 100	> 100	> 100	> 100	> 100	> 100	> 100	> 100
CC(=O)OC12C=C(C)C(C(C)C1)C1C(=O)N(CCN3CCCCC3)C(=O)C12 (configuration not stated)	> 50	> 50	> 50	> 50	> 50	> 50	> 50	> 50	> 50	> 50	> 50	> 50	> 50	> 50	> 50	> 50	> 50	> 50	–	–
